Assays:
Assay type in all cases: binding, Enterococcus faecium
PBP5:PenG complex (1:8) = test: NMR CSP titration of stem peptides into PenG-saturated PBP5; settings: PBP5:PenG 1:8, then SP titration
Procedure: Data was processed using Topspin 4.1.4 (Bruker) and analyzed using NMRFAM-SPARKY 1.3 and Poky (build number 20240829)[20],[21]. The sequence-specific backbone assignment of PBP5 is publicly available at BMRBID 51690.
SPs (SP1 to SP7) were titrated into 0.5 mM (^2H,^15N)-labeled and 0.1 mM (^2H,^15N)/^13C ILV labeled PBP5 at molar ratios of 0:1, 5:1, 10:1, 20:1, 40:1, 60:1, and 80:1 (stem peptide/SP:PBP5; molar ratios). 2D [^1H,^15N] TROSY or 2D [^1H,^13C] HMQC spectra were recorded for each titration point. SPs were solubilized in NMR buffer. Chemical shift perturbations (Δδ) between PBP5 and SP bound PBP5 spectra were calculated using Eq. 1,1 Δδppm=ΔδH^2+ΔδX/Y^2 where, X is ^15N or ^13C and Y is the constant i.e., 10 for ^15N and 4 for ^13C.
Residues with significant CSPs were identified by calculating the standard deviation of all CSPs (σ), then excluding any CSPs larger than average+2σ, recalculating σ as a new corrected σ0, and then repetitively removing CSPs above 2σ0 until no additional CSPs can be removed. CSPs above ≥2σ2 was the statistical threshold for ^1H/^15N backbone CSP analysis and ≥2xσ1 for ^1H/^13C methyl ILV data for the interaction of SP1 with PBP5. The same threshold values were used for all other peptides to allow for direct comparison with the SP1/PBP5 interaction. […]

PBP5 = test: 1D 1H STD NMR of stem peptides with PBP5; settings: for STD % to SP1: normalised to highest SP1:PBP5 value; for STD amplification factor: protein:peptide 1:100, 2 s saturation, 308 K
Description: (§1) Total saturation time for STD measurements was 2 s.
(§2) Overlapped peaks were completely excluded from the analysis.

PBP5:PenG complex = test: 1D 1H STD NMR of stem peptides with PBP5:PenG; settings: for STD amplification factor: PenG-saturated PBP5, 2 s saturation
Description: as §1, §2

D-Lac-L-Ala-D-iGln-L-Lys(D-iAsn)-D-Ala-D-Ala [SP1]
CSPs in presence vs absence of penicillin, in words (PBP5:PenG complex (1:8)): nearly identical
STD amplification factor as fraction of highest SP1:PBP5 value (PBP5; 1H DA4α,LA1α): 0.3688
STD % to SP1 (PBP5; 1H DA4α,LA1α): 36.8831%
STD amplification factor (PBP5; 1H DA4α,LA1α): 9.925
STD amplification factor as fraction of highest SP1:PBP5 value (PBP5; 1H DA4β, DLacβ): 0.2569
STD % to SP1 (PBP5; 1H DA4β, DLacβ): 25.6923%
STD amplification factor (PBP5; 1H DA4β, DLacβ): 6.913
STD amplification factor as fraction of highest SP1:PBP5 value (PBP5; 1H DA5α): 0.6484
STD % to SP1 (PBP5; 1H DA5α): 64.837%
STD amplification factor (PBP5; 1H DA5α): 17.4466
STD amplification factor as fraction of highest SP1:PBP5 value (PBP5; 1H DA5β): 0.3281
STD % to SP1 (PBP5; 1H DA5β): 32.8081%
STD amplification factor (PBP5; 1H DA5β): 8.828
STD amplification factor as fraction of highest SP1:PBP5 value (PBP5; 1H DQ2α,Dlacα,iNα): 0.2333
STD % to SP1 (PBP5; 1H DQ2α,Dlacα,iNα): 23.3322%
STD amplification factor (PBP5; 1H DQ2α,Dlacα,iNα): 6.278
STD amplification factor as fraction of highest SP1:PBP5 value (PBP5; 1H DQ2β (first listed)): 0.816
STD % to SP1 (PBP5; 1H DQ2β (first listed)): 81.5959%
STD amplification factor (PBP5; 1H DQ2β (first listed)): 21.9561
STD amplification factor as fraction of highest SP1:PBP5 value (PBP5; 1H DQ2β (second listed)): 0.8819
STD % to SP1 (PBP5; 1H DQ2β (second listed)): 88.186%
STD amplification factor (PBP5; 1H DQ2β (second listed)): 23.7294
STD amplification factor as fraction of highest SP1:PBP5 value (PBP5; 1H DQ2γ): 0.3832
STD % to SP1 (PBP5; 1H DQ2γ): 38.3191%
STD amplification factor (PBP5; 1H DQ2γ): 10.3111
STD amplification factor as fraction of highest SP1:PBP5 value (PBP5; 1H K3α): 0.5115
STD % to SP1 (PBP5; 1H K3α): 51.1543%
STD amplification factor (PBP5; 1H K3α): 13.7648
STD amplification factor as fraction of highest SP1:PBP5 value (PBP5; 1H K3β): 1
STD % to SP1 (PBP5; 1H K3β): 100%
STD amplification factor (PBP5; 1H K3β): 26.9084
STD amplification factor as fraction of highest SP1:PBP5 value (PBP5; 1H K3δ): 0.7475
STD % to SP1 (PBP5; 1H K3δ): 74.7509%
STD amplification factor (PBP5; 1H K3δ): 20.1143
STD amplification factor as fraction of highest SP1:PBP5 value (PBP5; 1H K3ε): 0.2891
STD % to SP1 (PBP5; 1H K3ε): 28.9129%
STD amplification factor (PBP5; 1H K3ε): 7.78
STD amplification factor as fraction of highest SP1:PBP5 value (PBP5; 1H LA1β): 0.276
STD % to SP1 (PBP5; 1H LA1β): 27.6026%
STD amplification factor (PBP5; 1H LA1β): 7.427
STD amplification factor as fraction of highest SP1:PBP5 value (PBP5; 1H iNβ): 0.3449
STD % to SP1 (PBP5; 1H iNβ): 34.4916%
STD amplification factor (PBP5; 1H iNβ): 9.281
STD amplification factor, ref to SP1 (fraction) (PBP5:PenG complex; 1H DA4α,LA1α): 0.3134
STD, ref to SP1 (percent) (PBP5:PenG complex; 1H DA4α,LA1α): 31.3366
STD amplification factor (PBP5:PenG complex; 1H DA4α,LA1α): 8.432
STD amplification factor, ref to SP1 (fraction) (PBP5:PenG complex; 1H DA4β, DLacβ): 0.2401
STD, ref to SP1 (percent) (PBP5:PenG complex; 1H DA4β, DLacβ): 24.0089
STD amplification factor (PBP5:PenG complex; 1H DA4β, DLacβ): 6.4604
STD amplification factor, ref to SP1 (fraction) (PBP5:PenG complex; 1H DA5α): 0.5713
STD, ref to SP1 (percent) (PBP5:PenG complex; 1H DA5α): 57.1289
STD amplification factor (PBP5:PenG complex; 1H DA5α): 15.3725
STD amplification factor, ref to SP1 (fraction) (PBP5:PenG complex; 1H DA5β): 0.2936
STD, ref to SP1 (percent) (PBP5:PenG complex; 1H DA5β): 29.3585
STD amplification factor (PBP5:PenG complex; 1H DA5β): 7.9
STD amplification factor, ref to SP1 (fraction) (PBP5:PenG complex; 1H DQ2α,Dlacα,iNα): 0.2074
STD, ref to SP1 (percent) (PBP5:PenG complex; 1H DQ2α,Dlacα,iNα): 20.7354
STD amplification factor (PBP5:PenG complex; 1H DQ2α,Dlacα,iNα): 5.58
STD amplification factor, ref to SP1 (fraction) (PBP5:PenG complex; 1H DQ2β (first listed)): 0.7176
STD, ref to SP1 (percent) (PBP5:PenG complex; 1H DQ2β (first listed)): 71.7627
STD amplification factor (PBP5:PenG complex; 1H DQ2β (first listed)): 19.3102
STD amplification factor, ref to SP1 (fraction) (PBP5:PenG complex; 1H DQ2β (second listed)): 0.813
STD, ref to SP1 (percent) (PBP5:PenG complex; 1H DQ2β (second listed)): 81.3002
STD amplification factor (PBP5:PenG complex; 1H DQ2β (second listed)): 21.8766
STD amplification factor, ref to SP1 (fraction) (PBP5:PenG complex; 1H DQ2γ): 0.3426
STD, ref to SP1 (percent) (PBP5:PenG complex; 1H DQ2γ): 34.2606
STD amplification factor (PBP5:PenG complex; 1H DQ2γ): 9.219
STD amplification factor, ref to SP1 (fraction) (PBP5:PenG complex; 1H K3α): 0.4115
STD, ref to SP1 (percent) (PBP5:PenG complex; 1H K3α): 41.1521
STD amplification factor (PBP5:PenG complex; 1H K3α): 11.0734
STD amplification factor, ref to SP1 (fraction) (PBP5:PenG complex; 1H K3β): 0.9267
STD, ref to SP1 (percent) (PBP5:PenG complex; 1H K3β): 92.6679
STD amplification factor (PBP5:PenG complex; 1H K3β): 24.9355
STD amplification factor, ref to SP1 (fraction) (PBP5:PenG complex; 1H K3δ): 0.5468
STD, ref to SP1 (percent) (PBP5:PenG complex; 1H K3δ): 54.6801
STD amplification factor (PBP5:PenG complex; 1H K3δ): 14.7135
STD amplification factor, ref to SP1 (fraction) (PBP5:PenG complex; 1H K3ε): 0.1626
STD, ref to SP1 (percent) (PBP5:PenG complex; 1H K3ε): 16.2603
STD amplification factor (PBP5:PenG complex; 1H K3ε): 4.3754
STD amplification factor, ref to SP1 (fraction) (PBP5:PenG complex; 1H LA1β): 0.2447
STD, ref to SP1 (percent) (PBP5:PenG complex; 1H LA1β): 24.4674
STD amplification factor (PBP5:PenG complex; 1H LA1β): 6.584
STD amplification factor, ref to SP1 (fraction) (PBP5:PenG complex; 1H iNβ): 0.3143
STD, ref to SP1 (percent) (PBP5:PenG complex; 1H iNβ): 31.4336
STD amplification factor (PBP5:PenG complex; 1H iNβ): 8.458
